Blank lines part the entries; values can stand above or below the compound they belong to.
What was measured:
[1] = system: KRT17; test: qRT-PCR of KRT17 mRNA in MDA-MB-231 cells; assay type: cell-based; conditions: for fold induction at 10 µM: MDA-MB-231, single dose 10 μM; for Change in KRT17 mRNA level: MDA-MB-231, 48 h, single agents 1–15 μM, combination UNC0638 at 7.5 μM with increasing doses of GSK343
Description: (§1) Following compound treatment of MDA-MB-231 for 48 h (in 6-well plates), media was removed and 1.5 ml of TRIzol (Invitrogen) was added directly to lyse cells and RNA was isolated according to the manufacturer’s instructions. Reverse transcription was done using the SuperScript III First-Strand Synthesis System (Invitrogen) according to the manufacturer’s instructions. Each measurement was done in triplicate, and the List of Primers can be found in Additional file 2: Table S1. For normalisation, we have used GAPDH and RNA pol II. Experiments were also done with the ‘Fast Sybr Green Cell-to-CT™-Kit’ according to the manufacturer’s instructions (Applied Biosystem). Fifteen thousand cells per 96 well were plated, and after 24 h, treated with compounds at various concentrations.
(§2) For qRT-PCR measurements the 2x iQ SYBR Green Supermix (Bio-Rad), 200nM Primers and 0.4μl of cDNA /per 20μl reaction was used. The measurement was done in low-white 96-well plates (Bio-Rad) on a CFX96 Real-time System/C1000 Thermal Cycler (Bio-Rad) with the following protocol: 95°C for 3’; 95°C for 10’’, 56°C for 10’’, 72°C for 30’’ 42 cycles followed by a melting curve from 72°C to 95°C.

[2] = system: FBXO32; test: qRT-PCR of FBXO32 mRNA in MDA-MB-231 cells; assay type: cell-based; conditions: for fold induction at 10 µM: MDA-MB-231, single dose 10 μM; for Change in FBXO32 mRNA level: MDA-MB-231, 48 h, single agents 1–15 μM, combination UNC0638 at 7.5 μM with increasing doses of GSK343
Description: as §1, §2

[3] = system: JMJD3; test: qRT-PCR of JMJD3 mRNA in MDA-MB-231 cells; assay type: cell-based; conditions: for fold induction at 10 µM: MDA-MB-231, single dose 10 μM; for Change in JMJD3 mRNA level: MDA-MB-231, 48 h, single agents 1–15 μM, combination UNC0638 at 7.5 μM with increasing doses of GSK343
Description: as §1, §2

[4] = system: EZH2; test: qRT-PCR of EZH2 mRNA in MDA-MB-231 cells; assay type: cell-based; conditions: Homo sapiens, 48 h, normalised against GAPDH, read-out: EZH2 RNA level, fold increase compared to the mock treated sample; for fold induction at 10 µM: MDA-MB-231, single dose 10 μM
Description: as §1, §2

[5] = system: SPINK1; test: qRT-PCR of SPINK1 mRNA in MDA-MB-231 cells; assay type: cell-based; conditions: for Change in SPINK1 mRNA level: MDA-MB-231, 48 h, single agents 1–15 μM, combination UNC0638 at 7.5 μM with increasing doses of GSK343; for SPINK1 expression upon treatment: MDA-MB-231, multiple doses and time points
Description: as §1, §2

[6] = system: MDA-MB-231 cells; test: MTT cell viability assay; assay type: cell-based; conditions: for IC50: Homo sapiens
Description: Fig. 1 MTT and mRNA levels in MDA-MB-231 cells after pharmacological inhibition and siRNA knockdown of EZH2 and EHMT2(G9a), individually and in combination. a Expression levels of KRT17, FBX032, JMJD3, EZH2, SPINK1 and EHMT2 were measured by qRT-PCR in the MDA-MB-231 cell line 48 h after transfection with siRNAs targeting EZH2 and EHMT2, both individually and in combination. All measurements were normalised to the fold-change (relative to GAPDH) in the mock transfection control. Error bars represent the mean ± SD of experiment performed in technical triplicate. b Expression levels of KRT17, FBX032, JMJD3 and SPINK1 were measured by qRT-PCR in the MDA-MB-231 cell line treated for 48 h with GSK343, UNC0638, and UNC0638 (at 7.5 μM) with increasing doses of GSK343. Each group has been compared to the untreated sample following normalisation to GAPDH. Error bars represent the mean ± SD of experiment performed in technical triplicate. c MTT assay for cell viability of MDA-MB-231 cells after treatment. MDA-MB-231 cells were seeded in 96 well plates. After 24 h, increasing doses of GSK343, UNC0638 or combination treatments (1, 2.5, 5, 7.5, 10 and 15 μM) were added to cells. Control was media with 0.5 % DMSO. Cell viability was measured by MTT assay after a 48-h treatment and a 24-h proliferation period. Error bars represent the mean ± SEM of five independent repeats
(§3) For clonogenic assays, cells were treated with compound for 48 h, media were removed and replaced with fresh media for a further 12 days to measure colony formation. For cell viability assays, lymphoma cells were plated at 20,000 cells in 200 μl per well in U-bottom 96 well plates in RPMI medium +20 % FCS. Cells were re-suspended 48 h later, diluted 10-fold in PBS + propidium iodide (PI) and the concentration of PI negative cells was counted using an Attune flow cytometer with autosampler. Breast cancer cells were seeded at a density of 10,000 cells/well in a sterile 96 clear-well plate with 150 μl of DMEM (+10 % FCS and 2 mM L-Glutamine). Each compound treatment was performed in triplicate for 72 h at concentrations of 100 nM and 1, 5, 10 and 50 μM in 100 μl of full-medium. After 72 h, 20 μl of MTT solution (3 mg of MTT Formazan, Sigma/1 ml PBS) was added to the medium and incubated for 4 h at 37 °C in a CO2 incubator. The MTT-product was solubilised with 100 μl DMSO, and for 1 h, incubated in the dark at room temperature. The optical density was read at 570 nm with PHERAstar.

[7] = system: MDA-MB-231 cells; test: Clonogenic growth assay; assay type: cell-based; conditions: Homo sapiens; MDA-MB-231, 48 h treatment then 12 days in fresh media
Description: as §3

[8] = system: DB; test: Lymphoma cell growth, cell counting following propidium iodide staining; assay type: cell-based; conditions: Homo sapiens, EZH2 Mutant Y646N, 48 h, PI negative cell count
Description: as §3

[9] = system: DOHH2; test: as above; assay type: cell-based; conditions: Homo sapiens, DOHH-2, EZH2 W.T., 48 h, PI negative cell count
Description: as §3

[10] = system: SC1; test: as above; assay type: cell-based; conditions: Homo sapiens, SC-1, EZH2 W.T., 48 h, PI negative cell count
Description: as §3

[11] = system: SUDLH8; test: as above; assay type: cell-based; conditions: EZH2 W.T. (amplified), 48 h, PI negative cell count
Description: as §3

[12] = system: WILL1; test: as above; assay type: cell-based; conditions: WILL-1, EZH2 W.T., 48 h, PI negative cell count
Description: as §3

[13] = system: WSU-FSCLL; test: as above; assay type: cell-based; conditions: EZH2 W.T., 48 h, PI negative cell count
Description: as §3

[14] = system: H3K27me3 and H3K9me3; test: Western analysis of global histone marks in MDA-MB-231 cells; assay type: cell-based; conditions: range of doses
Description: MDA-MB-231 cells seeded in 6 well plates at a cell density of 3 x 10^5 were treated with HKMTI-1-005 (1–7.5uM) for 48 h. Following lysis in Triton Extraction Buffer (TEB, PBS containing 0.5 % Triton ×100 (v/v), 1/1000 protease inhibitor), nuclei were re-suspended in 0.2 N HCL at a density of 4 x 10^7 nuclei per millilitre and incubated overnight at 4 °C to acid-extract the histones, before being centrifuged at 6500g for 10 min at 4 °C. Protein concentration was determined using the Bradford assay. H3K27me3, H3K9me3, H3K9me2, H3K9me and total H3 protein expression levels in the histone extract samples were determined using Western blot analysis using H3K27me3 (1:1000; Abcam), H3K9me3 (1:1000; Abcam), H3K9me (1:1000) and H3 (1:2000; Abcam) antibodies. After washing, the membrane was incubated with a horseradish peroxidase-labelled secondary antibody (1 h, room temperature). The membrane was incubated for 1 min with 5 mL of Pierce ECL Western blotting substrate (Thermo Scientific). Images were captured using Konica Minolta SRX101A Tabletop X-Ray film processor.

[15] = target: trimeric PRC2 complex (EZH2:EED:SUZ12) (Homo sapiens, UniProt O75530+Q15022+Q15910); test: PRC2 enzymatic assay (SPA-type), biotinylated-H3 (21–44) peptide substrate; assay type: biochemical; conditions: EZH2:EED:SUZ12, biotinylated-H3 (21–44) peptide substrate
Sequence of trimeric PRC2 complex (EZH2:EED:SUZ12) (Q15910 whole entry): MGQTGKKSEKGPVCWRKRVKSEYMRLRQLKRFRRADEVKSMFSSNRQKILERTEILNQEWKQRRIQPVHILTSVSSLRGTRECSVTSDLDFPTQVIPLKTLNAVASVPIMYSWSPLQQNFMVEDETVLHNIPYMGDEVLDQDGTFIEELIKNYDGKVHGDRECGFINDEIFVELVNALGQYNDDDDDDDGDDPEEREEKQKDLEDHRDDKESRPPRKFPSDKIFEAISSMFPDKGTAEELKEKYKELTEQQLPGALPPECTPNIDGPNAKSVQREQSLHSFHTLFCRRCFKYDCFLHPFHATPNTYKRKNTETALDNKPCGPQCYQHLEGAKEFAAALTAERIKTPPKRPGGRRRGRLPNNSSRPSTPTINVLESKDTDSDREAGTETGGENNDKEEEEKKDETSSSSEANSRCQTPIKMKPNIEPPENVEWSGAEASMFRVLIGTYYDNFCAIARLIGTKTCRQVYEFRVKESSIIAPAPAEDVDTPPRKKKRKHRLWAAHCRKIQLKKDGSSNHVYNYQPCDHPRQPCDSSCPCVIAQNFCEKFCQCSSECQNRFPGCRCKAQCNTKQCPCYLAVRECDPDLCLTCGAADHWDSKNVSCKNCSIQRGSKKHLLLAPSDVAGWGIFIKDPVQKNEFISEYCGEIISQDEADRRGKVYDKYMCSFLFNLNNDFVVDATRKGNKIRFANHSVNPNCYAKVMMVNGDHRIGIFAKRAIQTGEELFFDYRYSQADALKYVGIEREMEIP
Sequence of trimeric PRC2 complex (EZH2:EED:SUZ12) (O75530 whole entry partner): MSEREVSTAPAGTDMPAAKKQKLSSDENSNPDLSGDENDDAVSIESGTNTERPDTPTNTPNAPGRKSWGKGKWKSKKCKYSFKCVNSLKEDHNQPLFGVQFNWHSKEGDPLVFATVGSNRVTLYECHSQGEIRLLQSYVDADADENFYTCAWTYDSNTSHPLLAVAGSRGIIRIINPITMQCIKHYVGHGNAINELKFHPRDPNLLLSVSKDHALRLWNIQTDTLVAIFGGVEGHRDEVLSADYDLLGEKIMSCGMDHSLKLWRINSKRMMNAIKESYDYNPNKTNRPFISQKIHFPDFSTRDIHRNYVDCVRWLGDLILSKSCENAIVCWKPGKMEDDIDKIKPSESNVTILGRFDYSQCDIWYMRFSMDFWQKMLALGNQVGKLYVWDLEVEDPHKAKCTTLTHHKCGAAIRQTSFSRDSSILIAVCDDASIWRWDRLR
Sequence of trimeric PRC2 complex (EZH2:EED:SUZ12) (Q15022 whole entry partner): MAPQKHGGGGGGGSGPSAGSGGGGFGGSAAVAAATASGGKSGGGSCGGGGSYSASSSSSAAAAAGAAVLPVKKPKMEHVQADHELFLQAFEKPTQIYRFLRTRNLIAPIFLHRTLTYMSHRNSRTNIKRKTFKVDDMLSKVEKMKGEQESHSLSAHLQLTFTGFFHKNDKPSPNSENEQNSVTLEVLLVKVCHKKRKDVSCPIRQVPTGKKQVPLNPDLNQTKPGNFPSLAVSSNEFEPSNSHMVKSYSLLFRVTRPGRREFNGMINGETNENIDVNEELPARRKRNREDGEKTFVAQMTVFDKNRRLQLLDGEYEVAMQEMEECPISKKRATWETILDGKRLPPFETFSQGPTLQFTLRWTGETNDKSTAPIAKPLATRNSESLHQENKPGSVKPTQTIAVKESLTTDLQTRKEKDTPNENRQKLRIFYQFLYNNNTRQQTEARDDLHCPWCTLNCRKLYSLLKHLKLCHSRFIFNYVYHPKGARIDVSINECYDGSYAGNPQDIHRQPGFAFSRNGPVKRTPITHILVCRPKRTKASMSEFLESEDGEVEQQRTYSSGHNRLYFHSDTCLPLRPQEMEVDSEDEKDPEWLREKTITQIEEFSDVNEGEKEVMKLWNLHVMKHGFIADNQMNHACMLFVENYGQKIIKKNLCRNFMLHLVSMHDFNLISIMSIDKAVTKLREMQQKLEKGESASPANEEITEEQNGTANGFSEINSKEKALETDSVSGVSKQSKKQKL
Description: A trimeric PRC2 complex (EZH2:EED:SUZ12) was employed in this assay, along with a biotinylated-H3 (21–44) peptide substrate. […] Since the peptide substrates used in these assays are poor models for the complex and dynamic structure of the chromatin substrate in cells and since the only minimal number of PRC2 proteins (EZH2:EED:SUZ12) required for enzymatically active EZH2 were employed in the PRC2 assay, care should be taken in the over interpretation of this in vitro inhibitory data.

[16] = system: EZH2; conditions: cited from earlier work
[17] = Homo sapiens, 48 h, normalised against GAPDH, read-out: KRT17 RNA level, fold increase compared to the mock treated sample
[18] = Homo sapiens, 48 h, normalised against GAPDH, read-out: FBXO32 RNA level, fold increase compared to the mock treated sample
[19] = Homo sapiens, 48 h, normalised against GAPDH, read-out: JMJD3 RNA level, fold increase compared to the mock treated sample
[20] = MDA-MB-231 (Table 2), read-out: Cell viability (MTT) IC50

SMILES: COc1cc2nc(N3CCN(c4ccccn4)CC3)nc(NC3CCN(Cc4ccccc4)CC3)c2cc1OC [HKMTI-1-011]
SPINK1 expression upon treatment [5]: increased
IC50 [15]: 12 µM

SMILES: COc1cc2nc(NCCCN(C)C)nc(NC3CCN(Cc4ccccc4)CC3)c2cc1OC [HKMTI-1-002]
fold induction at 10 µM [1, 17]: 0.66
fold induction at 10 µM [2, 18]: 1.12
fold induction at 10 µM [3, 19]: 1.57
fold induction at 10 µM [4]: 0.86

SMILES: COc1cc2nc(N3CCCCC3)nc(NC3CCN(Cc4ccccc4)CC3)c2cc1OC [HKMTI-1-022]
SPINK1 expression upon treatment [5]: increased
IC50 [15]: 16 µM

SMILES: COc1cc2c(NC3CCN(C(C)C)CC3)nc(N3CCC(F)(F)CC3)nc2cc1OCCCN1CCCC1 [UNC0642]
EZH2 inhibition in biochemical assays [16]: not to significantly inhibit EZH2

SMILES: COc1cc2nc(N3CCCN(C)CC3)nc(NCc3ccccn3)c2cc1OC [HKMTI-1-013]
fold induction at 10 µM [1, 17]: 0.78
fold induction at 10 µM [2, 18]: 0.93
fold induction at 10 µM [3, 19]: 0.87
fold induction at 10 µM [4]: 0.13

SMILES: COc1cc2nc(N3CCCN(C)CC3)nc(NC3CCN(Cc4ccccc4)CC3)c2cc1OC [BIX01294, reference compound]
fold induction at 10 µM [1, 17]: 1.06
fold induction at 10 µM [2, 18]: 3.34
fold induction at 10 µM [3, 19]: 2.7
fold induction at 10 µM [4]: 0.87
IC50 [6, 20]: 9.6 µM
IC50 [7]: 1.4 µM

SMILES: COc1cc2nc(N3CCCC(CO)C3)nc(NC3CCN(C)CC3)c2cc1OC (stereo not drawn) [HKMTI-1-012]
fold induction at 10 µM [1, 17]: 1.32
fold induction at 10 µM [2, 18]: 1.06
fold induction at 10 µM [3, 19]: 0.9
fold induction at 10 µM [4]: 1.38

More lines, main results first:

IC50 [6, 20]: > 15 µM
IC50 [7]: > 50 µM
IC50 [8]: < 1 µM
IC50 [9]: 6.15 µM
IC50 [10]: 12.1 µM
IC50 [11]: 5.11 µM
IC50 [12]: 17.9 µM
IC50 [13]: 2.87 µM
SMILES: CCCc1cc(C)[nH]c(=O)c1CNC(=O)c1cc(-c2ccnc(N3CCN(C)CC3)c2)cc2c1cnn2C(C)C [GSK343, reference compound]
fold induction at 10 µM [1, 17]: 0.9
Change in KRT17 mRNA level [1]: little change
fold induction at 10 µM [2, 18]: 1.2
Change in FBXO32 mRNA level [2]: little change
fold induction at 10 µM [3, 19]: 1
Change in JMJD3 mRNA level [3]: little change
fold induction at 10 µM [4]: 1
Change in SPINK1 mRNA level [5]: little change
Effect on cell viability ([6]; MDA-MB-231, MTT, up to 15 μM, 48-h treatment and 24-h proliferation period): no significant reduction in cell viability
Global levels of H3K27me3 and H3K9me3 (Western) [14]: minor decrease

IC50 [6, 20]: 8.2 µM
IC50 ([6]; MDA-MB-231, MTT, 48-h treatment and 24-h proliferation period (Fig. 1c), read-out: Cell viability IC50 (calculated)): 9 µM
IC50 [7]: 1.1 µM
SMILES: COc1cc2c(NC3CCN(C(C)C)CC3)nc(C3CCCCC3)nc2cc1OCCCN1CCCC1 [UNC0638, reference compound]
fold induction at 7.5 µM ([1]; Homo sapiens, 48 h, MDA-MB-231, single dose 7.5 μM, normalised against GAPDH, read-out: KRT17 RNA level, fold increase compared to the mock treated sample): 1.1
Change in KRT17 mRNA level [1]: not significantly altered
fold induction at 7.5 µM ([2]; Homo sapiens, 48 h, MDA-MB-231, single dose 7.5 μM, normalised against GAPDH, read-out: FBXO32 RNA level, fold increase compared to the mock treated sample): 5.5
Change in FBXO32 mRNA level [2]: dose-dependent upregulation
fold induction at 7.5 µM ([3]; Homo sapiens, 48 h, MDA-MB-231, single dose 7.5 μM, normalised against GAPDH, read-out: JMJD3 RNA level, fold increase compared to the mock treated sample): 3.4
Change in JMJD3 mRNA level [3]: dose-dependent upregulation
fold induction at 7.5 µM ([4]; MDA-MB-231, single dose 7.5 μM): 0.4
Change in SPINK1 mRNA level [5]: not significantly altered
Global levels of H3K27me3 and H3K9me3 (Western) [14]: minor decrease
EZH2 inhibition in biochemical assays [16]: not to significantly inhibit EZH2

From paper PMC4545913, “Dual EZH2 and EHMT2 histone methyltransferase inhibition increases biological efficacy in breast cancer cells” (Clinical Epigenetics, 2015)
